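How tested: cells in 96-well plates exposed to compound for 48 hours at five concentrations. GI50 marks 50% less growth.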 Calls of active or inactive are those of the source. Cut-off read from the data, not from the text of the source: active = GI50 up to about 1.1 µM and inactive = higher.
Experiments:
Assay in all cases: growth of human tumour cells (NCI), 48 h
SF-295 = system: SF-295
OVCAR-3 = system: OVCAR-3
UACC-62 = system: UACC-62
SF-268 = system: SF-268
SF-539 = system: SF-539
KM12 = system: KM12
DMS-114 = system: DMS-114
M14 = system: M14
HCC 2998 = system: HCC 2998
SN12C = system: SN12C
OVCAR-4 = system: OVCAR-4
DMS-273 = system: DMS-273
OVCAR-5 = system: OVCAR-5
NCI-H23 = system: NCI-H23
SNB-78 = system: SNB-78
ACHN = system: ACHN
SK-MEL-5 = system: SK-MEL-5
U-251 = system: U-251
SR = system: SR
EKVX = system: EKVX
TK-10 = system: TK-10
SK-OV-3 = system: SK-OV-3
SW-620 = system: SW-620
CAKI-1 = system: CAKI-1
MOLT-4 = system: MOLT-4
Malme-3M = system: Malme-3M
A498 = system: A498
COLO 205 = system: COLO 205
CCRF-CEM = system: CCRF-CEM
IGROV-1 = system: IGROV-1
HL-60 = system: HL-60
K562 = system: K562
HOP-62 = system: HOP-62
HT-29 = system: HT-29
SK-MEL-2 = system: SK-MEL-2
A549 = system: A549
DLD-1 = system: DLD-1
NCI-H226 = system: NCI-H226
786-0 = system: 786-0
SK-MEL-28 = system: SK-MEL-28
RPMI-8226 = system: RPMI-8226
NCI-H522 = system: NCI-H522
SNB-19 = system: SNB-19
KM-20L2 = system: KM-20L2
HCT-116 = system: HCT-116
HOP-92 = system: HOP-92
RXF 393 = system: RXF 393
UO-31 = system: UO-31
UACC-257 = system: UACC-257
LXFL 529 = system: LXFL 529
LOX IMVI = system: LOX IMVI
OVCAR-8 = system: OVCAR-8
M19-MEL = system: M19-MEL
HCT-15 = system: HCT-15
XF498 = system: XF498
NCI-H460 = system: NCI-H460

Measured: GI50

COc1cc2cc3c4c(cc(OC)c(OC)c4c2cc1OC)CCN3C(=O)CCC(=O)O
inactive: SF-295 > 100 µM | OVCAR-3 > 100 µM | UACC-62 > 100 µM | SF-268 > 100 µM | SF-539 > 100 µM | KM12 > 100 µM | DMS-114 > 100 µM | M14 > 100 µM | HCC 2998 > 100 µM | SN12C > 100 µM | OVCAR-4 > 100 µM | DMS-273 > 100 µM | OVCAR-5 > 100 µM | NCI-H23 > 100 µM | SNB-78 > 100 µM | ACHN > 100 µM | SK-MEL-5 > 100 µM | U-251 > 100 µM | SR > 100 µM | EKVX > 100 µM | TK-10 > 100 µM | SK-OV-3 > 100 µM | SW-620 > 100 µM | CAKI-1 > 100 µM | MOLT-4 > 100 µM | Malme-3M > 100 µM | A498 97.9 µM | COLO 205 > 100 µM | CCRF-CEM > 100 µM | IGROV-1 > 100 µM | HL-60 > 100 µM | K562 > 100 µM | HOP-62 > 100 µM | HT-29 > 100 µM | SK-MEL-2 > 100 µM | A549 > 100 µM | DLD-1 > 100 µM | NCI-H226 > 100 µM | 786-0 > 100 µM | SK-MEL-28 > 100 µM | RPMI-8226 > 100 µM | NCI-H522 > 100 µM | SNB-19 > 100 µM | KM-20L2 > 100 µM | HCT-116 > 100 µM | HOP-92 > 100 µM | RXF 393 > 100 µM | UO-31 > 100 µM | UACC-257 > 100 µM | LXFL 529 > 100 µM | LOX IMVI > 100 µM

CCC12CCCNC1c1c(n(C)c3ccccc13)C(C(=O)OC)C2 (configuration not stated)
81.1 µM: HCT-15
inactive: SF-295 50.4 µM | OVCAR-3 11.2 µM | UACC-62 56.8 µM | SF-268 85.5 µM | SF-539 108 µM | KM12 58.3 µM | DMS-114 18.5 µM | HCC 2998 67.8 µM | OVCAR-8 88.3 µM | SN12C 78.3 µM | DMS-273 68.7 µM | OVCAR-5 67 µM | NCI-H23 51.6 µM | M19-MEL 68.4 µM | ACHN 79.4 µM | SK-MEL-5 36.6 µM | U-251 61.7 µM | SR 49.8 µM | XF498 51.6 µM | EKVX 79.3 µM | TK-10 116 µM | SK-OV-3 46.9 µM | SW-620 68.1 µM | CAKI-1 32.8 µM | MOLT-4 68.7 µM | Malme-3M 80.2 µM | NCI-H460 76.9 µM | COLO 205 38.8 µM | CCRF-CEM 85.1 µM | IGROV-1 61.4 µM | HL-60 72.9 µM | K562 67.9 µM | HOP-62 93.3 µM | HT-29 38.1 µM | SK-MEL-2 62.2 µM | A549 93.3 µM | DLD-1 76.4 µM | NCI-H226 126 µM | 786-0 93.8 µM | SK-MEL-28 100 µM | RPMI-8226 9.4 µM | NCI-H522 8.02 µM | SNB-19 95.5 µM | KM-20L2 44.3 µM | HCT-116 37.6 µM | HOP-92 16.3 µM | RXF 393 36.5 µM | UACC-257 59.2 µM | LXFL 529 80.2 µM | LOX IMVI 93.1 µM
